Read-outs that look alike come from different tables or passages of the source.
Key:
[1] = test system: CD20-expressing Raji-luc tumor cells; details: even in the presence of an excess of rituximab variant with inert Fc domain (IgG1-RTX-FEAR); cited from earlier work
[2] = test system: R/R DLBCL eligible for ASCT; format: in vivo; details: in combination with R-DHAX/C, preliminary
Procedure: The trial is conducted in 2 parts: dose escalation (Part 1) and expansion (Part 2). Subjects participate in only one part. Both parts consist of a screening period, a treatment period, a safety follow-up period, and a survival follow-up period.
Epcoritamab is initially be administered in combination with R-DHAX/C in a 3-subject cohort. DLTs are evaluated during the first 28 days.
Dexamethasone (40 mg) is administered intravenously or orally on days 1-4 of a cycle once every 3 weeks (Q3W) for cycles 1-3. Cytarabine (2 g/m^2) is administered intravenously on day 1 (usually over 3 hours), repeated after 12 hours (may result in a second dose on day 2 depending on timing of first dose), once every 3 weeks (Q3W) for cycles 1-3. […] Carboplatin (for DHAC) (AUC=5 mg/ml/min; Calvert's formula) is administered intravenously on day 1 once every 3 weeks (Q3W) for cycles 1-3.
CRS is graded according to the ASTCT grading for CRS (Tables 6 and 7), and for treatment of CRS, subjects should receive supportive care. […]

[3] = test system: primary DLBCL and follicular lymphoma patient biopsies; details: cited from earlier work
R/R B-NHL = test: Ongoing clinical trial of epcoritamab monotherapy (NCT03625037); format: in vivo
Text: Epcoritamab as monotherapy is currently in a clinical trial for the treatment of relapsed/refractory (R/R) (ClinicalTrials.gov Identifier: NCT03625037).

epcoritamab: IgG1 bispecific CD3xCD20 antibody, heavy/light chain pairs SEQ ID NOs: 24/25 and 26/27; CAS 2134641-34-0
tumor growth in the xenograft model [1]: effectively reduce tumor growth | responders observed ([2]; escalation phase, as of Sep. 8, 2021, total of 22 patients dosed, non-validated): 4 | responders observed ([2]; expansion phase 48 mg, as of Sep. 8, 2021, response data not completely entered): 0 | T-cell-mediated cytotoxicity ([3]; biopsies taken a certain amount of time after administration of an anti-CD20 antibody): induced T-cell-mediated cytotoxicity | tumor cell kill ([3]; biopsy taken 2 weeks after administering the anti-CD20 antibody): up to 40% | tolerated dose (R/R B-NHL; human, in vivo): at least 48 mg | dose-limiting toxicities (R/R B-NHL; monotherapy, R/R B-NHL patients, preliminary data): no dose-limiting toxicities reported

Reference: patent US20230355753A1, “BISPECIFIC ANTIBODY AGAINST CD3 AND CD20 IN COMBINATION THERAPY FOR TREATING DIFFUSE LARGE B-CELL LYMPHOMA” (GENMAB A/S, priority 2020, published 2023)
